32 compounds from patent US20090156646A1, “PYRIDYLPHENOL COMPOUND AND USE THEREOF” (TAKEDA PHARMACEUTICAL COMPANY LIMITED, priority 2005, published 2009) can be followed below.

Counter-ions that a name gives are not always drawn.

`N#Cc1c(-c2cccc(C(=O)NCCO)c2)cc(-c2ccccc2O)nc1NC(=O)c1cccs1` [Example 35, N-[3-cyano-4-(3-{[(2-hydroxyethyl)amino]carbonyl}phenyl)-6-(2-hydroxyphenyl)pyridin-2-yl]thiophene-2-carboxamide] yielded a melting point of 218 to 219 °C.
On to `CC(C)(C)OC(=O)c1c(-c2cccc(N)c2)cc(-c2ccccc2O)nc1NC(=O)c1ccccc1` [Example 62, tert-butyl 4-(3-aminophenyl)-2-(benzoylamino)-6-(2-hydroxyphenyl)nicotinate], for which the melting point lay in the range of 162 to 164 °C.
The same measure for `N#Cc1c(-c2cccc(NC(=O)CCN)c2)cc(-c2cc(Cl)ccc2O)nc1NC(=O)c1cccs1` (as salt: trifluoroacetate) [Example 46, N-{4-[3-(β-alanylamino)phenyl]-6-(5-chloro-2-hydroxyphenyl)-3-cyanopyridin-2-yl}thiophene-2-carboxamide trifluoroacetate]: 197 to 204 °C.
The value for `Cl.N#Cc1c(-c2cccc(N3CCOCC3)c2)cc(-c2ccc(F)cc2O)nc1NC(=O)c1ccco1` was 244 to 246 °C; that for `CCOc1ccccc1C(=O)Nc1nc(-c2ccc(Cl)cc2O)cc(-c2cccc(NC(=O)CCN)c2)c1C#N.Cl` was 240 to 244 °C; that for `Cl.N#Cc1c(-c2ccc(F)c(N)c2)cc(-c2ccc(F)cc2O)nc1NC(=O)c1ccco1` was 284 to 285 °C.
`CNCC(=O)Nc1cccc(-c2cc(-c3ccccc3O)nc(NC(=O)c3cccs3)c2C#N)c1.Cl`: the melting point lay within 248 to 254 °C.
Compound `N#Cc1c(-c2cccc(C(=O)NC3CCCNC3)c2)cc(-c2ccccc2O)nc1NC(=O)c1ccccn1` (centres unmarked) (as salt: hydrochloride) [Example 10, N-(3-cyano-6-(2-hydroxyphenyl)-4-{3-[(piperidin-3-ylamino)carbonyl]phenyl}pyridin-2-yl)pyridin-2-carboxamide dihydrochloride] showed a melting point of 204 to 210 °C.
Turning to `N#Cc1c(-c2cccc(C(=O)N3CCOCC3)c2)cc(-c2ccccc2O)nc1NC(=O)c1cccs1` [Example 36, N-{3-cyano-6-(2-hydroxyphenyl)-4-[3-(morpholin-4-ylcarbonyl)phenyl]pyridin-2-yl}thiophene-2-carboxamide], the melting point fell in the range of 253 to 254 °C.
The compound `Cl.NCCC(=O)Nc1cccc(-c2cc(-c3ccccc3O)nc(NC(=O)c3ccccc3)c2C(=O)O)c1` showed a melting point of 250 to 253 °C.
`COc1ccccc1C(=O)Nc1nc(-c2ccc(Cl)cc2O)cc(-c2cccc(C(=O)NCCN)c2)c1C#N.Cl` returned a melting point of 227 to 229 °C.
In the case of `N#Cc1c(-c2cccc(N)c2)cc(-c2ccccc2O)nc1NC(=O)c1ccc(Cl)s1` [Example 32, N-[4-(3-aminophenyl)-3-cyano-6-(2-hydroxyphenyl)pyridin-2-yl]-5-chlorothiophene-2-carboxamide], the melting point lay in the range of 259 to 260 °C.
`COc1ccc(O)c(-c2cc(-c3cccc(NC(=O)CCN)c3)c(C#N)c(NC(=O)c3cccs3)n2)c1.Cl` gave a melting point of 197 to 201 °C.
The compound `Cl.N#Cc1c(-c2cccc(C(=O)NC3CCCNC3)c2)cc(-c2ccccc2O)nc1NC(=O)c1cccs1` (centres unmarked) came in with a melting point of 232 to 233 °C.
Compound `CN(C)c1cccc(-c2cc(-c3ccccc3O)nc(NC(=O)c3cccs3)c2C#N)c1` [Example 38, N-{3-cyano-4-[3-(dimethylamino)phenyl]-6-(2-hydroxyphenyl)pyridin-2-yl}thiophene-2-carboxamide] yielded a melting point of 230 to 231 °C.
`N#Cc1c(-c2cccc(N)c2)cc(-c2ccccc2O)nc1NC(=O)c1ccccc1` [Example 28, N-[4-(3-aminophenyl)-3-cyano-6-(2-hydroxyphenyl)pyridin-2-yl]benzamide] yielded a melting point of 259 to 261 °C.
For the compound `N#Cc1c(-c2cccc(NC(=O)CCN)c2)cc(-c2ccccc2O)nc1NC(=O)c1ccccc1` (as salt: trifluoroacetate) [Example 31, N-[4-(3-(β-alanylamino)phenyl)-3-cyano-6-(2-hydroxyphenyl)pyridin-2-yl]benzamide trifluoroacetate], the melting point fell in the range of 225 to 226 °C.
For the compound `Cl.N#Cc1c(-c2cccc(NC(=O)CCN)c2)cc(-c2ccc(Cl)cc2O)nc1NC(=O)c1ccccc1OC(F)(F)F`, the melting point lay in the range of 218 to 223 °C.
The same measure for `CCN(CC)CCN(CC)c1cccc(-c2cc(-c3ccc(F)cc3O)nc(NC(=O)c3ccco3)c2C#N)c1` (as salt: hydrochloride) [Example 304, N-[3-cyano-4-{3-[[2-(diethylamino)ethyl] (ethyl)amino]phenyl}-6-(4-fluoro-2-hydroxyphenyl)pyridin-2-yl]-2-furamide dihydrochloride]: 138 to 144 °C; for `CN1CCN(Cc2cccc(-c3cc(-c4ccc(F)cc4O)nc(NC(=O)c4ccco4)c3C#N)c2)CC1` (as salt: hydrochloride) [Example 333, N-(3-cyano-6-(4-fluoro-2-hydroxyphenyl)-4-{3-[(4-methylpiperazin-1-yl)methyl]phenyl}pyridin-2-yl)-2-furamide dihydrochloride]: 205 to 210 °C.
`Cl.N#Cc1c(-c2cccc(C(=O)NC3CCCNC3)c2)cc(-c2ccccc2O)nc1NC(=O)c1cc2ccccc2s1` (centres unmarked) registered a melting point of 225 to 229 °C.
In the case of `COc1ccc(-c2cc(-c3cccc(NC(=O)CCN)c3)c(C#N)c(NC(=O)c3ccccc3)n2)c(O)c1` (as salt: trifluoroacetate) [Example 50, N-{4-[3-(β-alanylamino)phenyl]-3-cyano-6-(2-hydroxy-4-methoxyphenyl)pyridin-2-yl}benzamide trifluoroacetate], the melting point lay within 164 to 170 °C.
Turning to `CN(C)c1ccc(-c2cc(-c3ccccc3O)nc(NC(=O)c3cccs3)c2C#N)cc1C(=O)NCCN` (as salt: hydrochloride) [Example 248, N-[4-[3-{[(2-aminoethyl)amino]carbonyl}-4-(dimethylamino)phenyl]-3-cyano-6-(2-hydroxyphenyl)pyridin-2-yl]thiophene-2-carboxamide dihydrochloride], the melting point was in the range of 210 to 216 °C.
The compound `N#Cc1c(-c2cccc(N)c2)cc(-c2ccccc2O)nc1NC(=O)C1CCCCC1` [Example 29, N-[4-(3-aminophenyl)-3-cyano-6-(2-hydroxyphenyl)pyridin-2-yl]cyclohexanecarboxamide] returned a melting point of 236 to 238 °C.
The compound `CCN1CCN(Cc2cccc(-c3cc(-c4ccc(F)cc4O)nc(NC(=O)c4ccco4)c3C#N)c2)CC1` (as salt: hydrochloride) [Example 334, N-[3-cyano-4-{3-[(4-ethylpiperazin-1-yl)methyl]phenyl}-6-(4-fluoro-2-hydroxyphenyl)pyridin-2-yl]-2-furamide dihydrochloride] gave a melting point of 215 to 222 °C.
For `N#Cc1c(-c2ccccc2C(=O)NCCN)cc(-c2ccccc2O)nc1NC(=O)c1cccs1` (as salt: hydrochloride) [Example 24, N-[4-(2-{[(2-aminoethyl)amino]carbonyl}phenyl)-3-cyano-6-(2-hydroxyphenyl)pyridin-2-yl]thiophene-2-carboxamide dihydrochloride], the melting point lay in the range of 196 to 201 °C.
`CCCC(CC(=O)Nc1cccc(-c2cc(-c3ccc(F)cc3O)nc(NC(=O)c3ccco3)c2C#N)c1)N(CC)CC` (centres unmarked) (as salt: hydrochloride) [Example 317, N-[3-cyano-4-(3-{[3-(diethylamino)hexanoyl]amino}phenyl)-6-(4-fluoro-2-hydroxyphenyl)pyridin-2-yl]-2-furamide hydrochloride] came in with a melting point of 195 to 197 °C.
As to `Cl.N#Cc1c(-c2cccc(NC(=O)CN3CCCCC3)c2)cc(-c2ccc(F)cc2O)nc1NC(=O)c1ccco1`, the melting point lay within 249 to 251 °C.
The same measure for `N#Cc1c(-c2cccc(N)c2)cc(-c2ccccc2O)nc1NC(=O)c1ccsc1` [Example 33, N-[4-(3-aminophenyl)-3-cyano-6-(2-hydroxyphenyl)pyridin-2-yl]thiophene-3-carboxamide]: 257 to 260 °C; for `N#Cc1c(-c2cccc(NC(=O)CCN)c2)cc(-c2ccc(Cl)cc2O)nc1NC(=O)c1ccccc1` (as salt: trifluoroacetate) [Example 51, N-{4-[3-(β-alanylamino)phenyl]-6-(4-chloro-2-hydroxyphenyl)-3-cyanopyridin-2-yl}benzamide trifluoroacetate]: 160 to 167 °C; for `Cl.N#Cc1c(-c2cccc(C(=O)NCCCN)c2)cc(-c2ccccc2O)nc1NC(=O)c1cccs1`: 192 to 198 °C.
`Nc1cccc(-c2cc(NC(=O)c3cccs3)nc(-c3ccccc3O)c2)c1` [Example 25, N-[4-(3-aminophenyl)-6-(2-hydroxyphenyl)pyridin-2-yl]thiophene-2-carboxamide] came in with a melting point of 161 to 162 °C.
